According to PMC10683025, “Discovery of a Hydroxylamine-Based Brain-Penetrant EGFR Inhibitor for Metastatic Non-Small-Cell Lung Cancer” (Journal of Medicinal Chemistry, 2023):
Where “and” joins values, the source holds several entries; their conditions need not be identical. Equal entries are not always repeated.

Legend:
[1] = molecular target: T1, LYN (Homo sapiens, UniProt P07948); assay: KinaseProfiler enzymatic radiometric assay; assay type: biochemical; settings: read-out: Kinase IC50
T1 construct: purchased Eurofins DiscoverX (contract assay)
T1 sequence (P07948 whole entry): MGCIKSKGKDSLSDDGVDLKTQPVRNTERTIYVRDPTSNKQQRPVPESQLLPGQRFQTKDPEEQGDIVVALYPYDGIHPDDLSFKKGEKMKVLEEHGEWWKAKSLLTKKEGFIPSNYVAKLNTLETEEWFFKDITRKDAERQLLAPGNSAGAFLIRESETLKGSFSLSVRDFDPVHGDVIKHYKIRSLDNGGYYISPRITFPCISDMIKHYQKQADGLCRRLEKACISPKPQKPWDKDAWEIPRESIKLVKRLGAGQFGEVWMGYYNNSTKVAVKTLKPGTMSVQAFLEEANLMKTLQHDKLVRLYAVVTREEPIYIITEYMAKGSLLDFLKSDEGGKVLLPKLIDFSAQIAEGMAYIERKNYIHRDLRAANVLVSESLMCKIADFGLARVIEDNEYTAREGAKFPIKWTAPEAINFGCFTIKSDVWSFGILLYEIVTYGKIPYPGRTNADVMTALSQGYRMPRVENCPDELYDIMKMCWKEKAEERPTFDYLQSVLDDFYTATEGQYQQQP
Procedure: (§1) In vitro kinase activity (inhibitor binding constants (Kd) and biochemical inhibition (IC50’s)) were assessed by Eurofins DiscoverX (Kd determinations) and Eurofins Cerep (biochemical IC50 determinations).

[2] = molecular target: T2, ERBB4 (Homo sapiens, UniProt Q15303); assay: KinaseProfiler enzymatic radiometric assay; assay type: biochemical; settings: read-out: Kinase IC50
T2 construct: purchased Eurofins Cerep (KinaseProfiler, contract assay)
T2 sequence (Q15303 26-1308): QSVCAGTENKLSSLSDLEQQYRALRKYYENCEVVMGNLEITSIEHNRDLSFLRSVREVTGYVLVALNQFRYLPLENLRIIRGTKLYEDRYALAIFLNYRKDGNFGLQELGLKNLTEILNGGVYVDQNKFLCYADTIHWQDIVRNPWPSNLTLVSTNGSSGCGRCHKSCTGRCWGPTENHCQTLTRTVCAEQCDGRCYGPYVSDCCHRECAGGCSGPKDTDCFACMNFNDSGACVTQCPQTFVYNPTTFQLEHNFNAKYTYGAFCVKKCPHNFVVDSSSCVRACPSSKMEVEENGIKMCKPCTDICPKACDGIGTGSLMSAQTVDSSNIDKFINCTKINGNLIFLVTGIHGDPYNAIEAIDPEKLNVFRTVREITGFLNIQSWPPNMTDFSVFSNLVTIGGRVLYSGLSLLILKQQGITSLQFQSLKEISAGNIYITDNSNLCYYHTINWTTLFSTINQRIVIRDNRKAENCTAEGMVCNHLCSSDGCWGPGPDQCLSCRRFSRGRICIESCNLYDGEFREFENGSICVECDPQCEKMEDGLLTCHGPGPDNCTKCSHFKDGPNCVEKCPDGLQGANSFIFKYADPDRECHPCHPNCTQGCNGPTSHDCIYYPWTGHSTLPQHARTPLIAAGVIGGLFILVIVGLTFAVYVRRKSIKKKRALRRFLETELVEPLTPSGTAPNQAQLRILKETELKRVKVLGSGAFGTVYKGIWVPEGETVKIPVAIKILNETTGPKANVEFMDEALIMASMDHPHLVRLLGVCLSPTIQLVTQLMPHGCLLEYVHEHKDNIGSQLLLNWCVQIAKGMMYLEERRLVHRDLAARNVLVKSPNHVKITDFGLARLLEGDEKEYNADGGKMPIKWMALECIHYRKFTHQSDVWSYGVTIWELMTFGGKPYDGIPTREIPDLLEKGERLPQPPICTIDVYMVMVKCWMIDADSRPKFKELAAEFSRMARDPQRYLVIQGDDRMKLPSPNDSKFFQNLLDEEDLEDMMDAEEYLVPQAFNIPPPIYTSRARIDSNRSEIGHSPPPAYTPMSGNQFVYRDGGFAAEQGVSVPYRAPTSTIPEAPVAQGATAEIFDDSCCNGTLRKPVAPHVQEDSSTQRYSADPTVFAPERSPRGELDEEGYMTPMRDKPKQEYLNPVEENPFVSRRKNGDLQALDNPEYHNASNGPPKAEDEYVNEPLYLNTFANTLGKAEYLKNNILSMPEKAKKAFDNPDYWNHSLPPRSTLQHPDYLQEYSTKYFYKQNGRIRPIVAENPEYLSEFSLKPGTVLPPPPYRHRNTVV
Procedure: as §1

[3] = molecular target: CYP2D6 (Homo sapiens, UniProt P10635); assay: CYP450 inhibition in human liver microsomes; assay type: in vitro ADME; set-up: tissue BD Gentest 452117; host or cells: pooled human liver microsomes, mixed gender
CYP2D6, sequence (P10635 whole entry): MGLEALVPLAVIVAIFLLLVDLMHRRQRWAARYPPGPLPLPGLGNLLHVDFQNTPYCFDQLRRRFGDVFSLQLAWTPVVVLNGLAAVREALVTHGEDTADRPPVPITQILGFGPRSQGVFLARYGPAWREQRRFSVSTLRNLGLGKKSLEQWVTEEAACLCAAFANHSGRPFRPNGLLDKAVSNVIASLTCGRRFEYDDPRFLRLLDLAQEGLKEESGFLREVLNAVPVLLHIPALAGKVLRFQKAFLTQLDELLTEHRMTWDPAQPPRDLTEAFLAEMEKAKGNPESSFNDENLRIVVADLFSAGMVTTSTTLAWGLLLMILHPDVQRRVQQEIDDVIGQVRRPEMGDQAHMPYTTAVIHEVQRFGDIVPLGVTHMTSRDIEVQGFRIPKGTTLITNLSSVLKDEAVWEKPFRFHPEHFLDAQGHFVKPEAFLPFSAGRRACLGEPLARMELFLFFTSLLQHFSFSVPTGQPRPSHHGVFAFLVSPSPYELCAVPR
Procedure: The activities tested were CYP1A2-mediated phenacetin O-demethylation, CYP2C19-mediated (S)-mephenyotin 4′-hydroxylation, CYP2C9-mediated diclofenac 4′-hydroxylation, CYP2D6-mediated dextromethorphan O-demethylation, and CYP3A4-mediated midazolam 1′-hydroxylation. […] The reactions were initiated by adding NADPH (1 mM final concentration) after a 5 min preincubation, and the assay was run in duplicate (n = 2). Samples were analyzed by ultra-performance liquid chromatography tandem mass spectrometry (UPLC-MS/MS).

[4] = molecular target: T3, ZAP70 (Homo sapiens, UniProt P43403); assay: KINOMEScan; assay type: binding; settings: ZAP70, 1 µM; read-out: Percent Control
T3 construct: purchased Eurofins DiscoverX (KINOMEScan service)
T3 sequence (P43403 whole entry): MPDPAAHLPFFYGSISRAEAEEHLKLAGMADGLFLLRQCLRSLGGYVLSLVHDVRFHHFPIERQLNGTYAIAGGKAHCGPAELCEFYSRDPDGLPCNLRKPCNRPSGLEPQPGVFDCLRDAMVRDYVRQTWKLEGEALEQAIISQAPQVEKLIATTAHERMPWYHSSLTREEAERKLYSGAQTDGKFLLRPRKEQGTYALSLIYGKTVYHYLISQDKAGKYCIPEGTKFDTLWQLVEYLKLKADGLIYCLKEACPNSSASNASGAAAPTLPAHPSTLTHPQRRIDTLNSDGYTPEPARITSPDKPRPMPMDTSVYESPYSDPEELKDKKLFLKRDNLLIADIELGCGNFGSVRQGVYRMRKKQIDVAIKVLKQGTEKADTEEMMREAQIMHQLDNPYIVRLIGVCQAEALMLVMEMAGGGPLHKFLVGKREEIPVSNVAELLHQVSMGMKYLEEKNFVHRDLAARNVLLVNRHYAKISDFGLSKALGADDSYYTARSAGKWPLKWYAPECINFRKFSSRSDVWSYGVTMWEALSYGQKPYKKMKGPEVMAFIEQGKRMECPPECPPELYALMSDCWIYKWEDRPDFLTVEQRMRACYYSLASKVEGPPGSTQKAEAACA
From the text: (§2) Percent control was mapped onto the kinome tree using TREEspot.

[5] = molecular target: T4, ABL1(F317L)-phosphorylated (Homo sapiens, UniProt P00519, F317L); assay: KINOMEScan; assay type: binding; settings: read-out: Percent Control
T4 construct: purchased Eurofins DiscoverX
T4 sequence (P00519 whole entry F317L): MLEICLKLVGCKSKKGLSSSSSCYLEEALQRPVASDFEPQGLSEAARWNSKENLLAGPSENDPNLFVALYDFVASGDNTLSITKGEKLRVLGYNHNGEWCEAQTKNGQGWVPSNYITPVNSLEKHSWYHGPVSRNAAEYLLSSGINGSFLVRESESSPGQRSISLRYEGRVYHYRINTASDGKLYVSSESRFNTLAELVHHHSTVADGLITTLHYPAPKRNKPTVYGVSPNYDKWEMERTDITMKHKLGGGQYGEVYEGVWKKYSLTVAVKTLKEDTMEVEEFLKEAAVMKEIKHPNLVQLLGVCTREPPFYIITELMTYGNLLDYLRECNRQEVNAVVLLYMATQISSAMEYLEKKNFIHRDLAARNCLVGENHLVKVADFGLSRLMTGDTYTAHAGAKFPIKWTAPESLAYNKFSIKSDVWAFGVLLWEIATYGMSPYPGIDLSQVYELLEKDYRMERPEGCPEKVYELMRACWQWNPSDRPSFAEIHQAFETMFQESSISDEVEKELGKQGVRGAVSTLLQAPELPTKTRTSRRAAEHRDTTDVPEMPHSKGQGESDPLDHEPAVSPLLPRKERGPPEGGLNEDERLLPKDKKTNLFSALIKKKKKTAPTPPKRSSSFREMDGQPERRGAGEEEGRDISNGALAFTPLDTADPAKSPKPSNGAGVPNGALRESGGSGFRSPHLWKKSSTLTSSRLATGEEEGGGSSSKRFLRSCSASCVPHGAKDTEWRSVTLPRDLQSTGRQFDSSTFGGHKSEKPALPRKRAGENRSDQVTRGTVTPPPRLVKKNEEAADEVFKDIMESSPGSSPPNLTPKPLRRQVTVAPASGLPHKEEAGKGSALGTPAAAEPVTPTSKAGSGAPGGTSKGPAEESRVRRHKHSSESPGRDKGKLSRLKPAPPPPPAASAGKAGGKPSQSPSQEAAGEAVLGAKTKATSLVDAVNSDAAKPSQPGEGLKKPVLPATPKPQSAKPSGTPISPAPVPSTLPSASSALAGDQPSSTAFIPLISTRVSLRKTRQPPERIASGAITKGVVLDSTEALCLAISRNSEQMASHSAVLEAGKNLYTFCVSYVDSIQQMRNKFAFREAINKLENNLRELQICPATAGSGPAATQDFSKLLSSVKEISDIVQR
From the text: as §2

[6] = molecular target: T5, ABL1(F317I)-phosphorylated (Homo sapiens, UniProt P00519, F317I); assay: KINOMEScan; assay type: binding; settings: read-out: Percent Control
T5 construct: purchased Eurofins DiscoverX
T5 sequence (P00519 whole entry F317I): as the sequence (P00519 whole entry F317L) above, with L317I counted along it
From the text: as §2

[7] = molecular target: T6, ZAK (Homo sapiens, UniProt Q9NYL2); assay: KINOMEScan; assay type: binding; settings: read-out: Percent Control
T6 construct: purchased Eurofins DiscoverX (KINOMEScan service)
T6 sequence (Q9NYL2 whole entry): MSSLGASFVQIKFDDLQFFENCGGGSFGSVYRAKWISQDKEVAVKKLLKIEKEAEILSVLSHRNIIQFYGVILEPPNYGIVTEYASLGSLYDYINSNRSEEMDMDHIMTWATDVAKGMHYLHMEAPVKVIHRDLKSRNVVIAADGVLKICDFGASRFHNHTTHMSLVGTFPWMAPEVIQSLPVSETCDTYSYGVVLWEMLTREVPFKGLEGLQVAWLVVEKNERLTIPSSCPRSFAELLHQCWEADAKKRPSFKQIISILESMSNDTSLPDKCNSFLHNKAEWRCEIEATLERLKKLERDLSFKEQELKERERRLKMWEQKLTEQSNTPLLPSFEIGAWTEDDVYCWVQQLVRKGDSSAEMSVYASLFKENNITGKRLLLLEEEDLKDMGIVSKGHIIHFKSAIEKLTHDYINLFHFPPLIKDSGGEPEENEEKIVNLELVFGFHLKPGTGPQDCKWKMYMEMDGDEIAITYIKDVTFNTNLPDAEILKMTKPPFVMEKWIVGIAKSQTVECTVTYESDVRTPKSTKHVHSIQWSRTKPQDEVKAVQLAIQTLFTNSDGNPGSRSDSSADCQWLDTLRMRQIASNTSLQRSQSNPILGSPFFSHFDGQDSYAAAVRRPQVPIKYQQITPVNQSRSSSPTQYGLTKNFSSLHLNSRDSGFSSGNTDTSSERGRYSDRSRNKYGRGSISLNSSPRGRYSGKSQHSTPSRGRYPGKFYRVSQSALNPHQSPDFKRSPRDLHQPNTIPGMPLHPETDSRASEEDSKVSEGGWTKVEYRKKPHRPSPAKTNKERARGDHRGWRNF

[8] = Pharmacokinetic study; assay type: in vivo, BALB/c nude mice
Procedure: Animal experiments were performed at Pharmaron, Inc. and animal use was approved by Pharmaron’s Institutional Animal Care and Use Committee (IACUC) in Pharmaron (Pharmaron IACUC, Protocol #PK-M-07182022, #PK-R-06012022, and #ON-CELL-XEN-06012022) following the guidance of AAALAC. Six- to eight-week-old male Sprague-Dawley rats (approximately 200–300 g) obtained from Si Bei Fu Laboratory Animal Technology Co., six- to eight-week-old male CD1 mice (approximately 20–30 g) obtained from Si Bei Fu Laboratory Animal Technology Co., and six- to eight-week-old female BALB/c nude mice (approximately 20–30 g) obtained from Si Bei Fu Laboratory Animal Technology Co., were used in the pharmacokinetic studies. Six- to eight-week-old female BALB/c nude mice (approximately 18–22 g) obtained from Beijing Anikeeper Biotech Co., Ltd. were used in the intracranial PDX study. Animals were housed at 20–25 °C with humidity ranging from 40 to 70% relative humidity, were exposed to 12 h light and dark cycles, and were supplied with food and water ab libitum.
Approximately 0.03 mL of blood was collected from the dorsal metatarsal vein (in the case of CD1 mice), 0.03 mL of blood from the orbit vein (in the case of BALB/c nude mice), or 0.2 mL of blood from the jugular vein (in the case of Sprague-Dawley rats) at each time point. Blood at each sampling point was transferred into a plastic micro centrifuge tube containing K2-EDTA, and collection tubes with blood samples and anticoagulant were inverted several times for proper mixing of the tube contents and placed on ice prior to centrifugation for plasma. Blood samples were centrifuged at 4 °C, 4000g for 5 min to obtain plasma. Samples were stored in a freezer at −75 °C prior to analysis. Concentrations of test articles in the plasma samples were determined using LC-MS/MS and WinNonlin 8.3 (Phoenix) was used for pharmacokinetic calculations. The values obtained were plotted on GraphPad Prism software and are presented as mean ± SD.

[9] = molecular target: T7, ABL1-nonphosphorylated (Homo sapiens, UniProt P00519); assay: KINOMEScan; assay type: binding; settings: read-out: Percent Control
T7 construct: purchased Eurofins DiscoverX
T7 sequence (P00519 whole entry): as the sequence (P00519 whole entry F317L) above, with L317F counted along it
From the text: as §2

[10] = test system: HER2+ breast cancer cell lines; assay: CellTiter-Glo cell viability assay; assay type: cell-based; settings: Homo sapiens; range over cell lines; read-out: IC50's in HER2+ breast cancer cell lines
Procedure: The A431, HCC827, SK-BR-3, ZR-75–30, AU565, and Caco-2 cell lines were obtained from ATCC. The NCI-H1975 cell line was obtained from SIBS. The NCI-H3255 cell line was obtained from CoBioer. Engineered Ba/F3 cell lines were obtained from Crown Bioscience. MCKII-MDR1 cells were obtained from The Netherlands Cancer Institute. HEK293 cells were obtained from Invitrogen. A431 cells were cultured in DMEM (Life Technologies) with 10% FBS. HCC827, NCI-H1975, and AU565 cells were cultured in RPMI1640 (Invitrogen) with 10% FBS. NCI-H3255 cells were cultured in BEGM (Lonza) with 10% FBS. Ba/F3 EGFR-del E746_A750/C797S and Ba/F3 EGFR-L858R/C797S cells were cultured in RPMI (Invitrogen) with 10% FBS. SK-BR-3 cells were cultured in McCoy’s 5a (Invitrogen) with 10% FBS. ZR-75-30 cells were cultured in RPMI1640 (Invitrogen) with 20% FBS. Caco-2 and MCKII-MDR1 culture information is given in the Permeability Studies section. HEK293 cells were cultured in DMEM (Gibco) with 10% FBS, 0.1 mM NEAA, 25 mM HEPES, 100 U/mL penicillin-streptomycin, μg/mL blasticidin, and 400 μg/mL Geneticin. All cells were cultured in a humidified incubator with 5% CO2 at 37 °C.
Viability assays using A431, HCC827, NCI-H1975, NCI-H3255, Ba/F3 EGFR-del E746_A750/C797S, Ba/F3 EGFR-L858R/C797S, AU565, SK-BR-3, and ZR-75-30 cells were performed at Crown BioScience. Cells were plated into 96-well plates at 1500–7000 cells per well and dosed in triplicate (n = 3) in a nine-point, 4-fold dilution series with compounds (0.15 nM to 10 μM) in DMSO and incubated for 72 h. After 72 h, cell viability was assayed by CellTiter-Glo Luminescent Viability Assay (Promega). Dose–response curves were generated and used to calculate the IC50 values which were calculated on GraphPad Prism from the nonlinear regression equation fitted with a sigmoidal dose response and are presented as mean ± SEM.

[11] = female, BALB/c nude, plasma, Mouse 3 mg/kg (IV)
[12] = female, BALB/c nude, plasma, Mouse 30 mg/kg (PO)

Compound: COc1cc2ncnc(Nc3cccc(Cl)c3F)c2cc1OCCON1CCN(C)CC1 [Compound 9, N-(3-Chloro-2-fluorophenyl)-7-methoxy-6-(2-((4-methylpiperazin-1-yl)oxy)ethoxy)quinazolin-4-amine]
- IC50 [1]: 0.058 µM
- IC50 [2]: 0.33 µM
- IC50 [3]: 1.1 µM and 1.11 µM
- remaining binding at 1 µM [4]: 98%
- remaining binding at 1 µM [5]: 4%
- remaining binding at 1 µM [6]: 48%
- remaining binding at 1 µM [7]: 89%
- plasma level at the 24 h time point ([8]; 30 mg/kg PO, BALB/c nude mice): no compound was detected
- clearance [8, 11]: 3.52 ± 0.522 L/h/kg
- half-life at 24 h [8, 11]: 1.67 ± 0.12 h
- Vd at 24 h ([8]; female, BALB/c nude, plasma, Mouse 3 mg/kg (IV), read-out: Vss): 4.68 ± 0.54 L/kg
- Cmax at 24 h [8, 12]: 2.18 ± 0.066 µM
- Tmax at 24 h [8, 12]: 0.42 ± 0.14 h
- bioavailability at 24 h [8, 12]: 61%
- half-life at 24 h [8, 12]: 1.84 ± 0.62 h
- remaining binding at 1 µM [9]: 8.9%
- IC50 [10]: 0.99 to 1.6 µM
